# Structures can show the parent of a compound that is named as a salt. Where two headings read alike, the source gives them in different places.
# Legend:
# [1] = Analgesic activity (method of Randall and Selitto); format: in vivo; settings: for selectivity ratio: in vivo, Randall-Selitto 3 h, read-out: Therapeutical index LD50/ED50 (Randall-Selitto 3h); for ED50: po, read-out: Randall-Selitto (3 h) ED50
# From the text: As regards the analgesic activity, the evaluation has been carried out according to the method of Randall and Selitto (Arch. Ing. Pharmacodyn., 111, 409, […]).
# [2] = Acute toxicity in the rat (method of Litchfield and Wilcoxon); settings: in vivo, po
# From the text: (§1) In the following resuming table the results obtained for the esters of the Indomethacin are reported. In the determination of the acute toxicity, carried out in the rat, the method of Litchfield and Wilcoxon (J. Pharmacol. Exp. Therm., 96, 99, 1949) has been adopted.
# [3] = Ulcerogenic activity / gastric tolerability, UD50 in fasted rats; format: in vivo, rat; settings: rat, in vivo, po
# From the text: (§2) The UD50 has been also calculated according to the aforesaid method of Litchfield and Wilcoxon.
# [4] = Anti-inflammatory activity, carrageenin induced oedema (Winter et al.); format: in vivo, rat; settings: rat, in vivo; carrageenin 3 h; read-out: Therapeutical index LD50/ED50 (carrageenin 3h)
# From the text: (§3) As regards the anti-inflammatory activity, the ED50 in the normal rat has been evaluated according to Winter et al. (Proc. Soc. Exp. Biol. Med., 111, 544, 1962).
# rat [5] = assay: as above; format: in vivo; settings: 3 h; for ED50: Rattus norvegicus, po, read-out: Carrageenin induced oedema (3 h) ED50; for Carrageenin induced oedema (3 h) ED50: 180 min
# From the text: as §3
# [6] = Solubility of the product; format: physicochemical
# rat [7] = assay: Acute toxicity in the rat (method of Litchfield and Wilcoxon); settings: in vivo, po
# From the text: as §1
# rat [8] = assay: Ulcerogenic activity / gastric tolerability, UD50 in fasted rats; format: in vivo; settings: for Gastric tolerability UD50 fasted 18 h / Gastric tolerability UD50 fasted 48 h: rat, in vivo, po
# From the text: as §2
# [9] = UD50 18 h, Randall-Selitto 3 h, read-out: Tolerability index UD50 (18h)/ED50 (Randall-Selitto 3 H)
# [10] = UD50 18 h, carrageenin 3 h, read-out: Tolerability index UD50 (18 h)/ED50 (carrageenin 3 h)
# [11] = UD50 48 h, Randall-Selitto 3 h, read-out: Tolerability index UD50 (48 h)/ED50 (Randall-Selitto 3 h)
# [12] = UD50 48 h, carrageenin 3 h, read-out: Tolerability index UD50 (48 h)/ED50 (carrageenin 3 h)
SMILES,selectivity ratio [1],"selectivity ratio [3, 9]","selectivity ratio [3, 10]","selectivity ratio [3, 11]","selectivity ratio [3, 12]",selectivity ratio [4],"LD50, rat (rat [7])",Tolerability index UD50 (18h)/ED50 (Randall-Selitto 3 H) (rat [8]; UD50 18 h),Tolerability index UD50 (48 h)/ED50 (Randall-Selitto 3 h) (rat [8]; UD50 48 h),Gastric tolerability UD50 fasted 18 h (rat [8]),Gastric tolerability UD50 fasted 48 h (rat [8]),"Carrageenin induced oedema (3 h) ED50 (rat [5]; normal rat, per os)","ED50 ([1]; 3 h, per os)",other results
"COc1ccc2c(c1)c(CC(=O)O)c(C)n2C(=O)c1ccc(Cl)cc1 [Indomethacin, 1-(p-chlorobenzoyl)-2-methyl-5-methoxy-indol-3-acetic acid, reference compound]",15.8,5.18,1.57,2.59,0.78,4.77,,,,,,,,"ED50 ([1]; 3 h): 1.33 mg/kg; LD50 ([2]; per os (head: mg/kg/os), * = insufficient sample): 21 mg/kg; TD50 at 18 h ([3]; fasted rats, per os, 18 h, read-out: Gastric tolerability UD50 fasted 18 h): 6.9 mg/kg; TD50 at 48 h ([3]; fasted rats, per os, 48 h, read-out: Gastric tolerability UD50 fasted 48 h): 3.45 mg/kg; ED50 (rat [5]): 4.4 mg/kg"
"COc1ccc2c(c1)c(CC(=O)OCc1cnc(C)c3c1COC(C)(C)O3)c(C)n2C(=O)c1ccc(Cl)cc1 [compound ex. 1(b), Hydrochloride of the (3,4-isopropylidene)-pyridoxine ester of 1-(p-chlorobenzoyl)-2-methyl-5-methoxy-indol-3-acetic acid]",31.9,,,,,8.39,85 mg/kg,12.59,8.45,33.50,22.50,10.13 mg/kg/os,,"Randall-Selitto (3 h) ED50 ([1]; 3 h, per os, 180 min): 2.66 mg/kg/os; solubility in cold chloroform ([6]; cold chloroform): soluble; solubility in hot N,N'-dimethylformamide ([6]; hot N,N'-dimethylformamide): poorly soluble; solubility in hot ethanol ([6]; hot ethanol): soluble; solubility in water ([6]; water): insoluble; Tolerability index UD50 (18 h)/ED50 (carrageenin 3 h) (rat [8]; UD50 18 h, carrageenin 3 h): 3.30; Tolerability index UD50 (48 h)/ED50 (carrageenin 3 h) (rat [8]; UD50 48 h, carrageenin 3 h): 2.22"
"COc1ccc2c(c1)c(CC(=O)OCc1cnc(C)c3c1COC(C)(C)O3)c(C)n2C(=O)c1ccc(Cl)cc1 [compound ex. 1(c), (3,4-isopropylidene)-pyridoxine ester of 1-(p-chlorobenzoyl)-2-methyl-5-methoxy-indol-3-acetic acid]",,,5.75,,3.8,,> 200 mg/kg,78.51,51.85,212.00,140.00,36.83 mg/kg/os,2.7 mg/kg,
"COc1ccc2c(c1)c(CC(=O)OCc1cnc(C)c(O)c1CO)c(C)n2C(=O)c1ccc(Cl)cc1 [compound ex. 2, Pyridoxine ester of 1-(p-chlorobenzoyl)-2-methyl-5-methoxy-indol-3-acetic acid]",,157,6.97,84.6,3.75,,,,,,,,3.37 mg/kg,"mortality ([2]; 819 mg/kg, read-out: LD50, rat line: percent at 819 mg/kg): 62.5%; TD50 at 18 h ([3]; Gastric tolerability UD50 fasted 18 h): 530 mg/kg; TD50 at 48 h ([3]; Gastric tolerability UD50 fasted 48 h): 285 mg/kg; ED50 (rat [5]; normal rat, per os): 76 mg/kg"

# — patent US4412996A, “Pyridoxine derivatives and related pharmaceutical compositions” (Crinos Farmacologica Spa, priority 1980, dated 1983)
